The source of these data is patent US20080293795A1, “COMBINATION THERAPY WITH PARP INHIBITORS” (ABBOTT LABORATORIES, priority 2006, published 2008).

The structures appear in SMILES notation. pKi: −log10 of the molar value.

For the assay, the target named is T1, Recombinant Human Poly(ADP-Ribose) Polymerase (PARP) (Homo sapiens, UniProt P09874).
T1 construct: purchased Trevigen, Gaithersburg, Md; host or cells: E. coli
T1 sequence (P09874 whole entry): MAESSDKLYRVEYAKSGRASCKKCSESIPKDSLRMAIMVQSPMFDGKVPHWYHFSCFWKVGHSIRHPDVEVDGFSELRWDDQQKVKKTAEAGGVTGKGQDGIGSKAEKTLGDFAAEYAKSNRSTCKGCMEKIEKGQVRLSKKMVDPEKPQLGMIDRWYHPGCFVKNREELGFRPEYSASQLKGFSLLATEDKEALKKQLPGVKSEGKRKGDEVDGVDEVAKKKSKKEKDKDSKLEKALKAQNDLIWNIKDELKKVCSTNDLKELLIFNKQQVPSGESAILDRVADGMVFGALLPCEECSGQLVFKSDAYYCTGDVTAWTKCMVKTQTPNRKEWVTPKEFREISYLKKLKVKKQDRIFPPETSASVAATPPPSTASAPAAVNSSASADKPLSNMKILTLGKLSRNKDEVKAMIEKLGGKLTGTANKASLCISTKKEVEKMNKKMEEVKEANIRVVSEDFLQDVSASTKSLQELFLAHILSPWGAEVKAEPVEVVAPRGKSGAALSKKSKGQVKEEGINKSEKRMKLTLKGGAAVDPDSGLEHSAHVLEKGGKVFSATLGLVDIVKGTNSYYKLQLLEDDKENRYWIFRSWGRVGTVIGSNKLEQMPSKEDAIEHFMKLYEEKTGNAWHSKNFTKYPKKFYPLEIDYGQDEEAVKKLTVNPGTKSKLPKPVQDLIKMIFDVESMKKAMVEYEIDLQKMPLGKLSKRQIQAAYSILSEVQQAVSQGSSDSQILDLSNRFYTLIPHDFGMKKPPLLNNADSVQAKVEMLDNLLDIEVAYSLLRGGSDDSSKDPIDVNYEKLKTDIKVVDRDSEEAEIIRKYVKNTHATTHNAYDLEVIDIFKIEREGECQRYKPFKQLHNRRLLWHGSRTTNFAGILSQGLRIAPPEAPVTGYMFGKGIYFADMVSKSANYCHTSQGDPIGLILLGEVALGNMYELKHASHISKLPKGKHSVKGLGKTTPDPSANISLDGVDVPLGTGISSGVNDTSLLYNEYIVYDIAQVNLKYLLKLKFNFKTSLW
Description: PARP1 inhibition assay ([3H]-NAD+, biotinylated histone H1, FlashPlate/SPA). It is filed as biochemical. Particulars: from inhibition curves at various substrate concentrations.
Description: Nicotinamide[2,5′,8-3H]adenine dinucleotide and strepavidin SPA beads were purchased from Amersham Biosiences (UK) Recombinant Human Poly(ADP-Ribose) Polymerase (PARP) purified from E. coli and 6-Biotin-17-NAD^+, were purchase from Trevigen, Gaithersburg, Md. NAD^+, Histone, aminobenzamide, 3-amino benzamide and Calf Thymus DNA (dcDNA) were purchased from Sigma, St. Louis, Mo. […] Biotinylated histone H1 was prepared by treating the protein with Sulfo-NHS-LC-Biotin from Pierce Rockford, Ill. […] Streptavidin coated (FlashPlate Plus) microplates were purchased from Perkin Elmer, Boston, Mass.
PARP1 assay was conducted in PARP assay buffer containing 50 mM Tris pH 8.0, 1 mM DTT, 4 mM MgCl2. […] 170 μl of the stopped reaction mixtures were transferred to streptavidin Flash Plates, incubated for 1 hr, and counted using a TopCount microplate scintillation counter.
Regarding `CC1(c2nc3c(C(N)=O)cccc3[nH]2)CCN1C1CCC1` (centres unmarked) [2-(1-cyclobutyl-2-methylazetidin-2-yl)-1H-benzimidazole-4-carboxamide], the pKi (in general, the Ki on a negative log10 scale, so that one unit is a factor of ten) is 7.48.
As for `CC1(c2nc3c(C(N)=O)cccc3[nH]2)CN(C2CCC2)C1` [2-(1-cyclobutyl-3-methylazetidin-3-yl)-1H-benzimidazole-4-carboxamide], the pKi is 8.21.
`CC1(c2nc3c(C(N)=O)cccc3[nH]2)CCN(C2CCC2)C1` (centres unmarked) [2-(1-cyclobutyl-3-methylpyrrolidin-3-yl)-1H-benzimidazole-4-carboxamide]: the pKi was 8.40.
`CC1(c2nc3c(C(N)=O)cccc3[nH]2)CCN(C2CCC2)CC1` [2-(1-cyclobutyl-4-methylpiperidin-4-yl)-1H-benzimidazole-4-carboxamide]: the pKi was 8.04.
In the case of `NC(=O)c1cccc2[nH]c(C3CCN3C3CCC3)nc12` (centres unmarked) [2-(1-cyclobutylazetidin-2-yl)-1H-benzimidazole-4-carboxamide], the pKi is 7.10.
In the case of `NC(=O)c1cccc2[nH]c(C3CN(C4CCC4)C3)nc12` [2-(1-cyclobutylazetidin-3-yl)-1H-benzimidazole-4-carboxamide], the pKi is 7.79.
With `NC(=O)c1cccc2[nH]c(C3CCN(C4CCC4)CC3)nc12` [2-(1-cyclobutylpiperidin-4-yl)-1H-benzimidazole-4-carboxamide], the pKi was 8.20.
As to `NC(=O)c1cccc2[nH]c(C3CCN(C4CCC4)C3)nc12` (centres unmarked) [2-(1-cyclobutylpyrrolidin-3-yl)-1H-benzimidazole-4-carboxamide], the pKi was 8.17.
Take `CC1(c2nc3c(C(N)=O)cccc3[nH]2)CCN1C1CCCCC1` (centres unmarked) [2-(1-cyclohexyl-2-methylazetidin-2-yl)-1H-benzimidazole-4-carboxamide]: the pKi is 7.56.
On to `CC1(c2nc3c(C(N)=O)cccc3[nH]2)CN(C2CCCCC2)C1` [2-(1-cyclohexyl-3-methylazetidin-3-yl)-1H-benzimidazole-4-carboxamide], for which the pKi was 8.25.
With `CC1(c2nc3c(C(N)=O)cccc3[nH]2)CCN(C2CCCCC2)C1` (centres unmarked) [2-(1-cyclohexyl-3-methylpyrrolidin-3-yl)-1H-benzimidazole-4-carboxamide], the pKi is 8.24.
Turning to `CC1(c2nc3c(C(N)=O)cccc3[nH]2)CCCN(C2CCCCC2)CC1` (centres unmarked) [2-(1-cyclohexyl-4-methylazepan-4-yl)-1H-benzimidazole-4-carboxamide], the pKi is 7.92.
For the compound `NC(=O)c1cccc2[nH]c(C3CCCN(C4CCCCC4)CC3)nc12` (centres unmarked) [2-(1-cyclohexylazepan-4-yl)-1H-benzimidazole-4-carboxamide], the pKi was 8.32.
Consider `NC(=O)c1cccc2[nH]c(C3CCN3C3CCCCC3)nc12` (centres unmarked) [2-(1-cyclohexylazetidin-2-yl)-1H-benzimidazole-4-carboxamide], for which the negative-log Ki (pKi) was 6.61.
In the case of `NC(=O)c1cccc2[nH]c(C3CN(C4CCCCC4)C3)nc12` [2-(1-cyclohexylazetidin-3-yl)-1H-benzimidazole-4-carboxamide] it was 7.80.
Regarding `NC(=O)c1cccc2[nH]c(C3CCN(C4CCCCC4)C3)nc12` (centres unmarked) [2-(1-cyclohexylpyrrolidin-3-yl)-1H-benzimidazole-4-carboxamide], the pKi is 8.15.
Regarding `CC1(c2nc3c(C(N)=O)cccc3[nH]2)CCN1C1CCCC1` (centres unmarked) [2-(1-cyclopentyl-2-methylazetidin-2-yl)-1H-benzimidazole-4-carboxamide], the pKi is 7.51.
Then `CC1(c2nc3c(C(N)=O)cccc3[nH]2)CN(C2CCCC2)C1` [2-(1-cyclopentyl-3-methylazetidin-3-yl)-1H-benzimidazole-4-carboxamide], with 8.40; and `CC1(c2nc3c(C(N)=O)cccc3[nH]2)CCN(C2CCCC2)C1` (centres unmarked) [2-(1-cyclopentyl-3-methylpyrrolidin-3-yl)-1H-benzimidazole-4-carboxamide], with 8.47.
For the compound `CCN1CCCC1(C)c1nc2c(C(N)=O)cccc2[nH]1` (centres unmarked) [2-(1-ethyl-2-methylpyrrolidin-2-yl)-1H-benzimidazole-4-carboxamide], the pKi was 8.22.
